Test results reported in patent US6800618B2, “Chemosensitizing agents against chloroquine resistant plasmodium falciparum and methods of making and using thereof” (The United States of America as represented by the …, priority 2001, dated 2004).

Columns and labels:
[1] = tested on: RCS; test: FIC index in RCS isolate; format: cell-based, Plasmodium falciparum; parameters: key: 1.0 = additive; <1.0 synergy; >1.0 antagonism; conditions: isolate from Brazil; same method as for W-2
Protocol: (§1) Fifty percent inhibitory concentrations (IC50s) were determined for each candidate compound alone and for candidate compounds in fixed combinations of their respective IC50s (1:1, 1:3, 3:1). […] See Elion, G. V., et al. (1954) J Biol Chem 208:477-488, which is herein incorporated by reference. The FIC is the actual IC50 of one compound in the presence of a second compound but is expressed as a fraction of its IC50 when used alone. This index is a mathematical representation of the isobologram such that an FIC index of 1.0 represents the line of additive on the isobologram. An FIC index of less than 1.0 represents synergy or potentiation and an FIC index of greater than 1.0 represents antagonism.
(§2) Parasites from different regions responded differently to the compounds of the present invention. The same assay method described above for W-2 was used except that the strains used were isolated from Thailand, Brazil, and Peru, respectively.

[2] = tested on: TM91C235; test: FIC index in TM91C235 isolate; format: cell-based, Plasmodium falciparum; parameters: key: 1.0 = additive; <1.0 = synergy; >1.0 = antagonism; conditions: isolate from Southeast Asia (Thailand); same method as for W-2
Protocol: Fifty percent inhibitory concentrations (IC50s) were determined for each candidate compound alone and for candidate compounds in fixed combinations of their respective IC50s (1:1, 1:3, 3:1). […] The FIC is the actual IC50 of one compound in the presence of a second compound but is expressed as a fraction of its IC50 when used alone. This index is a mathematical representation of the isobologram such that an FIC index of 1.0 represents the line of additive on the isobologram. An FIC index of less than 1.0 represents synergy or potentiation and an FIC index of greater than 1.0 represents antagonism.
The same assay method described above for W-2 was used except that the strains used were isolated from Thailand, Brazil, and Peru, respectively.

[3] = tested on: Plasmodium falciparum W2 clone; test: FIC index with chloroquine (isobologram analysis) in W2 clone; format: cell-based; parameters: key: 1.0 = additive; <1.0 = synergy; >1.0 = antagonism; conditions: 1:1 combination of drug and chloroquine; chloroquine-resistant W2 clone
Protocol: In brief, the assay is based on the incorporation of radiolabeled hypoxanthine by the parasites and inhibition of isotope incorporation is attributed to activity of known or candidate antimalarial drugs. For each assay, proven antimalarials, such as chloroquine, mefloquine, quinine, artemisinin, pyrimethamine and sulfadoxine, were used as controls. The incubation period was 66 hours and the starting parasitemia was 0.2% with a 1% hematocrit. […] Albumax may be used instead of 10% normal heat inactivated human plasma.
(§3) 25 μl of each diluted candidate compound was then transferred to test plates, 200 μl of parasitized erythrocytes (0.2% parasitemia and 1% hematocrit) were added, and incubated at 37° C. in a controlled environment of 5% CO2, 5% O2 and 90% N2. After 42 hours, 25 μl of ^3H-hypoxanthine was added and the plates were incubated for an additional 24 hours. At the end of the 66 hour incubation period, the plates were frozen at −70° C. to lyse the red cells and later thawed and harvested onto glass fiber filter mats by using a 96-well cell harvester. The filter mats were then counted in a scintillation counter and the data was analyzed.
The FIC is the actual IC50 of one compound in the presence of a second compound but is expressed as a fraction of its IC50 when used alone. This index is a mathematical representation of the isobologram such that an FIC index of 1.0 represents the line of additive on the isobologram. An FIC index of less than 1.0 represents synergy or potentiation and an FIC index of greater than 1.0 represents antagonism.
In the isobologram graphs as shown in FIGS. 1-3, the x-axis is fractional inhibitory concentration (FIC) of chloroquine and the y-axis is FIC of chemosensitizing agent. The FIC is the actual IC50 of one drug in the presence of the second drug but is expressed as a fraction of its IC50 when used alone. If the isobologram graph is a straight line, it represents an additive effect of the two drugs. If the graph forms a concave curve below the line, it indicates synergy or potentiation of the combination. Below the line means synergy or potentiation and above the line means antagonism.

[4] = tested on: Peruvian PC49; test: FIC index in Peruvian PC49 isolate; format: cell-based, Plasmodium falciparum; parameters: key: 1.0 = additive; <1.0 synergy; >1.0 antagonism; conditions: isolate from South America (Peru); same method as for W-2
Protocol: as §1, §2

[5] = tested on: TM91C235 cells; test: In vitro reversal activity (cell growth suppression, 3H-hypoxanthine incorporation) in TM91C235 cells; format: cell-based, Plasmodium falciparum; conditions: for restoring the drug sensitivity of the mefloquine resistant cell line: coadministration with mefloquine; for Control % sup: test compounds only
Source text: For quantitative in vitro drug susceptibility testing, two well characterized P. falciparum clones, W2 and D6, were used. See Oduola et al. (1988) Exp Parasitol 66:86-95, which is herein incorporated by reference. W2 is a clone of the Indochina I isolate and is resistant to chloroquine and pyrimethamine, but susceptible to mefloquine. D6 is a clone from the Sierra I/UNC isolate and is susceptible to chloroquine and pyrimethamine, but has reduced susceptibilities to mefloquine and halofantrine. TM91C235 was isolates from Thailand and is highly resistant to mefloquine, chloroquine, and quinine.
The in vitro antimalarial drug susceptibility assay used is a modification of the procedures first published by Desjardins, et al. with modifications developed by Milhous, et al. See Desjardins, R. E., et al. (1979) Antimicrobial Agents Chemother 16:710-718; and Milhous, et al. (1985) Antimicrobial Agents Chemother 27:525-530, which are herein incorporated by reference. In brief, the assay is based on the incorporation of radiolabeled hypoxanthine by the parasites and inhibition of isotope incorporation is attributed to activity of known or candidate antimalarial drugs. For each assay, proven antimalarials, such as chloroquine, mefloquine, quinine, artemisinin, pyrimethamine and sulfadoxine, were used as controls. The incubation period was 66 hours and the starting parasitemia was 0.2% with a 1% hematocrit. The media used was RPMI-1640 culture media with no folate or p-aminobenzoic acid (PABA). Albumax may be used instead of 10% normal heat inactivated human plasma.
If a candidate compound was tested without any prior knowledge of its activity or solubility, the compound was dissolved directly in dimethylsulfoxide (DMSO) and diluted 400 fold with complete culture media. These unknown compounds were normally started at a highest concentration of about 50,000 ng/ml. The compounds were then diluted 2-fold, 11 times, to give a concentration range of about 1,048-fold. These dilutions were performed automatically by a Biomek 1000 or 2000 Liquid Handling System into 96-well microtiter plates.
as §3
Each of these test compounds were tested under three different concentrations, 5000, 500, and 50 ng/ml, in the presence of 10 ng/ml of chloroquine and 5 ng/ml of mefloquine. […] Thus, the compounds of the present invention may be used to treat, prevent or inhibit drug resistant malaria.

[6] = test compound 50 ng/ml combined with 5 ng/ml mefloquine
[7] = test compound 50 ng/ml combined with 10 ng/ml chloroquine
[8] = test compound 500 ng/ml combined with 5 ng/ml mefloquine
[9] = test compound 500 ng/ml combined with 10 ng/ml chloroquine
[10] = test compound 5000 ng/ml combined with 5 ng/ml mefloquine
[11] = test compound 5000 ng/ml combined with 10 ng/ml chloroquine

In the case of CN1CCN(CCCCN2c3ccccc3CCc3ccccc32)CC1 [7p, 5-[4-(4-Methyl-piperazin-1-yl)-butyl]iminodibenzyl], the “FIC index RCS” value [1] is reported as 0.66, the “FIC index TM91C235” value [2] is reported as 0.54 and the “FIC (fractional inhibitory concentration) index” value [3] is reported as 0.52.

CN1CCN(CCCCN2c3ccccc3Sc3ccccc32)CC1 [7h, 10-[4-(4-Methyl-piperazin-1-yl)-butyl]phenothiazine] was tested, and the “FIC index RCS” value [1] was 0.49, the “FIC index TM91C235” value [2] was 0.48 and the “FIC index Peruvian PC49” value [4] was 0.98. For the same compound, the “FIC (fractional inhibitory concentration) index” value [3] was 0.4.

In the case of c1ccc2c(c1)CCc1ccccc1N2CCCCCCN1CCCC1 [7x, 5-(6-Pyrrolidin-1-yl-hexyl)iminodibenzyl], the “FIC index RCS” value [1] is reported as 0.60, the “FIC index TM91C235” value [2] is reported as 0.54 and the “FIC index Peruvian PC49” value [4] is reported as 0.92. The “FIC (fractional inhibitory concentration) index” value [3] was 0.57.

In the case of c1ccc(N(CCCCN2CCCC2)c2ccccc2)cc1 [7t, Diphenyl-(4-pyrrolidin-1-yl-butyl)amine], the “FIC index RCS” value [1] is reported as 0.37, the “FIC index TM91C235” value [2] is reported as 0.32 and the “FIC (fractional inhibitory concentration) index” value [3] is reported as 0.45.

With CCN(CC)CCCCCCN1c2ccccc2CCc2ccccc21 [7w, 5-(6-Diethylaminohexyl)iminodibenzyl] the “FIC index RCS” value [1] was 0.72, the “FIC index TM91C235” value [2] was 0.59 and the “FIC (fractional inhibitory concentration) index” value [3] was 0.48.

c1ccc2c(c1)Sc1ccccc1N2CCCCN1CCCCC1 [7f, 10-(4-Piperidin-1-yl-butyl)phenothiazine] was tested, and the “FIC index RCS” value [1] was 0.68, the “FIC index TM91C235” value [2] was 0.52 and the “FIC index Peruvian PC49” value [4] was 0.83. The “FIC (fractional inhibitory concentration) index” value [3] was 0.49.

For CCN(CC)CCCCN(c1ccccc1)c1ccccc1 [7s, N,N-Diethyl-N′,N′-diphenyl-butane-1,4-diamine], the “FIC index RCS” value [1] was 0.33, the “FIC index TM91C235” value [2] was 0.3 and the “FIC (fractional inhibitory concentration) index” value [3] was 0.48.

With OC(c1cc(C(F)(F)F)nc2c(C(F)(F)F)cccc12)C1CCCCN1 (stereo not shown) [mefloquine, reference compound] the “cell growth inhibition of TM91C235 cells by drug alone” value ([5]; 5 ng/ml of mefloquine alone) was “did not inhibit the cell growth”.

With CCN(CC)CCCC(C)Nc1ccnc2cc(Cl)ccc12 (stereo not shown) [chloroquine] the “cell growth inhibition of TM91C235 cells by drug alone” value ([5]; 10 ng/ml of chloroquine alone) was “did not inhibit the cell growth”.

With Cc1ccc(CNCCCCN2c3ccccc3Sc3ccccc32)cc1 [7c, 10-(4-Methylbenzylaminobutyl)phenothiazine] the “restoring the drug sensitivity of the mefloquine resistant cell line” value [5] was “not very active”, the “Mefloquine % SUP” value [5, 6] was 0% and the Chloroquine % sup [5, 7] was 14%. For the same compound, the “Mefloquine % SUP” value [5, 8] was 0%, the Chloroquine % sup [5, 9] was 27% and the “Mefloquine % SUP” value [5, 10] was 13%. The Chloroquine % sup [5, 11] was 62%, the Control % sup ([5]; 50 ng/ml) was 13% and the Control % sup ([5]; 500 ng/ml) was 18%. For the same compound, the Control % sup ([5]; 5000 ng/ml) was 35%.

In the case of c1ccc2c(c1)CCc1ccccc1N2CCCCCN1CCCC1 [7v, 5-(5-Pyrrolidin-1-yl-pentyl)iminodibenzyl], the “FIC index RCS” value [1] is reported as 0.37, the “FIC index TM91C235” value [2] is reported as 0.55 and the “FIC index Peruvian PC49” value [4] is reported as 0.59. For the same compound, the “FIC (fractional inhibitory concentration) index” value [3] was 0.48.

With Cc1ccc(CNCCCCN2c3ccccc3CCc3ccccc32)cc1 [7k, 5-(4-Methylbenzylaminobutyl)iminodibenzyl] the “Mefloquine % SUP” value [5, 6] was 20%, the Chloroquine % sup [5, 7] was 10% and the “Mefloquine % SUP” value [5, 8] was 22%. For the same compound, the Chloroquine % sup [5, 9] was 20%, the “Mefloquine % SUP” value [5, 10] was 41% and the Chloroquine % sup [5, 11] was 33%. For the same compound, the Control % sup ([5]; 50 ng/ml) was 30%, the Control % sup ([5]; 500 ng/ml) was 32% and the Control % sup ([5]; 5000 ng/ml) was 60%.

c1ccc2c(c1)CCc1ccccc1N2CCCCN1CCCCC1 [7n, 5-(4-Piperidin-1-yl-butyl) iminodibenzyl] was tested, and the “FIC index RCS” value [1] was 0.36, the “FIC index TM91C235” value [2] was 0.54 and the “FIC index Peruvian PC49” value [4] was 0.73. For the same compound, the “FIC (fractional inhibitory concentration) index” value [3] was 0.45.

c1ccc2c(c1)Sc1ccccc1N2CCCCN1CCOCC1 [7g, 10-(4-Morpholin-4-yl-butyl)phenothiazine] was tested, and the “FIC index RCS” value [1] was 0.37, the “FIC index TM91C235” value [2] was 0.32 and the “FIC index Peruvian PC49” value [4] was 0.81. For the same compound, the “FIC (fractional inhibitory concentration) index” value [3] was 0.39.

In the case of c1ccc(CN(CCCCN2c3ccccc3CCc3ccccc32)Cc2ccccc2)cc1 [7l, 5-(4-Dibenzylaminobutyl)iminodibenzyl], the “Mefloquine % SUP” value [5, 6] is reported as 14%, the Chloroquine % sup [5, 7] is reported as 6% and the “Mefloquine % SUP” value [5, 8] is reported as 22%. For the same compound, the Chloroquine % sup [5, 9] was 8%, the “Mefloquine % SUP” value [5, 10] was 19% and the Chloroquine % sup [5, 11] was 13%. The Control % sup ([5]; 50 ng/ml) was 11%, the Control % sup ([5]; 500 ng/ml) was 17% and the Control % sup ([5]; 5000 ng/ml) was 13%.

CN(C)CCCCN1c2ccccc2Sc2ccccc21 [7a, 10-(4-Dimethylaminobutyl)phenothiazine] was tested, and the “FIC index RCS” value [1] was 0.51, the “FIC index TM91C235” value [2] was 0.28 and the “Mefloquine % SUP” value [5, 6] was 2%. The Chloroquine % sup [5, 7] was 30%, the “Mefloquine % SUP” value [5, 8] was 31% and the Chloroquine % sup [5, 9] was 97%. For the same compound, the “Mefloquine % SUP” value [5, 10] was 92%, the Chloroquine % sup [5, 11] was 100% and the Control % sup ([5]; 50 ng/ml) was 17%. For the same compound, the Control % sup ([5]; 500 ng/ml) was 27%, the Control % sup ([5]; 5000 ng/ml) was 92% and the “FIC (fractional inhibitory concentration) index” value [3] was 0.23.

For c1ccc(CN(CCCCN2c3ccccc3Sc3ccccc32)Cc2ccccc2)cc1 [7d, 10-(4-Dibenzylaminobutyl)phenothiazine], the “restoring the drug sensitivity of the mefloquine resistant cell line” value [5] was “not very active”, the “Mefloquine % SUP” value [5, 6] was 0% and the Chloroquine % sup [5, 7] was 12%. For the same compound, the “Mefloquine % SUP” value [5, 8] was 3%, the Chloroquine % sup [5, 9] was 16% and the “Mefloquine % SUP” value [5, 10] was 9%. It also gave a Chloroquine % sup [5, 11] of 25%, a Control % sup ([5]; 50 ng/ml) of 7% and a Control % sup ([5]; 500 ng/ml) of 10%. The Control % sup ([5]; 5000 ng/ml) was 22%.
